The values that follow come from patent publication US9241489B2, “Plant growth regulating compounds” (Syngenta Participations AG, priority 2011, dated 2016).

Each structure is given as a SMILES string.

Broadly, the melting point is the temperature, or range, at which the solid turns liquid.

On to `N#Cc1cnc(NC(=O)CCC(=O)O)cn1` [Compound A1, 4-[(5-cyanopyrazin-2-yl)amino]-4-oxo-butanoic acid], for which the melting point is 201 to 202 °C.
